This is an account of results in paper PMC8541342, “Expression, Purification and Refolding of a Human NaV1.7 Voltage Sensing Domain with Native-like Toxin Binding Properties” (Toxins, 2021).

For orientation: IC50 means the concentration that inhibits the measured activity by half.

Entries after “also recorded” stand apart in the source; their conditions may differ.

The subject of one data set is mice. As to conditions: ref [9]; cited from earlier work. The text has this:
This system opens up possibilities for detailed biophysical studies of binding interactions with toxins and other drug candidates for the development of new non-addictive pain therapeutics targeting NaV1.7. In addition, because the protein is expressed in E. coli, it also enables the preparation of isotope-labeled samples or the introduction of unnatural amino acids for structural and functional studies.

For a further data set, the system named is full-length NaV1.7. As to conditions: cited from earlier work.
Data set [1] concerns F813A and D816A mutants of NaV1.7 VSD2 in DMPC vesicles. Kind of data set: MST binding to mutant VSD2 compared with WT (overlay, Figure S6). The note with it: F813A and D816A vs WT VSD2 in DMPC. Also noted: species or system human. As to the method:
(Supplementary Material, Figure S5). […] Lastly, it is additional confirmation that our recombinant system captures details of the interactions that correspond to those with full-length channel in native membranes.
The analysis of the MST binding titrations was carried out with the NanoTemper analy sis software, and the relative fluo-rescence measurements and fitted binding cur ves were combined into a single graph to illustrate the rightshift (lower binding affinity) in both mutants. Based on this analysis, both Phe 813 and Asp 816 appear to play an important role in […]

Data set [2] in a line: Dynamic light scattering particle size. The data set is classed as physicochemical. The note with it: DLS, VSD2 in DMPC ~40 μM, fixed-angle, 25 °C, spherical geometry assumed. On the procedure:
A Brookhaven NanoBrook series instrument was used to perform dynamic light scattering (DLS). The sample in this experiment was the VSD in DMPC solution prepared as described above at a concentration of ~40 μM. Sample was placed into a 1 cm quartz cuvette, and fixed-angle DLS was performed at 25 °C. Measurements of fixed-angle scattering were averaged over time intervals and, therefore, gave the correlation function, which in turn yielded the particle size distribution (assuming exponential correlation), reported as diameter in nm. This processing was done using the NanoBrook instrument analysis software. Particle size analysis assumes spherical geometry.

Consider `CC[C@H](C)[C@@H]1NC(=O)[C@@H]2CSSC[C@@H]3NC(=O)[C@H](C(C)C)NC(=O)[C@H](CC(C)C)NC(=O)[C@H](CC(N)=O)NC(=O)[C@@H]4CCCN4C(=O)[C@H](CCCNC(=N)N)NC(=O)[C@H](CSSC[C@H](NC(=O)[C@@H](N)CC(=O)O)C(=O)N[C@@H](CC(C)C)C(=O)NCC(=O)N[C@@H](Cc4ccccc4)C(=O)N[C@@H](CCSC)C(=O)N[C@@H](CCCNC(=N)N)C(=O)N[C@@H](CCCCN)C(=O)N2)NC(=O)[C@H](CSSC[C@@H](C(=O)N[C@@H](CCCCN)C(=O)N[C@@H](Cc2ccc(O)cc2)C(=O)N[C@H](C(=O)N[C@@H](Cc2ccccc2)C(=O)O)C(C)C)NC(=O)[C@H](Cc2c[nH]c4ccccc24)NC(=O)[C@H](CCCCN)NC(=O)[C@H](Cc2c[nH]cn2)NC(=O)[C@H]([C@@H](C)O)NC(=O)[C@H](CCCNC(=N)N)NC(=O)[C@H](CO)NC3=O)NC(=O)[C@H](CCCCN)NC(=O)[C@H](CC(=O)O)NC(=O)[C@H](CC(N)=O)NC(=O)[C@H](CC(=O)O)NC(=O)[C@@H]2CCCN2C1=O` [GpTx-I], for which the “analgesic effects in mice (in words)” value in the data set with mice was “analgesic effects superior to morphine in mice; also recorded: exhibits analgesic effects in mice”. Besides, the IC50 in the data set on full-length NaV1.7 is 10 nM. In data set [1], the “change in binding affinity for mutants (in words)” value is “decreases in GpTx-I binding affinity; also recorded: substantial reduction in binding affinity”.

B1: VSD2/DMPC complex: recombinant refolded NaV1.7 VSD of repeat II, residues 732–860 (UniProt ID Q15858-3), reconstituted into DMPC vesicles (protein)
chain: DPFVDLAITICIVLNTLFMAMEHHPMTEEFKNVLAIGNLVFTGIFAAEMVLKLIAMDPYEYFQVGWNIFDSLIVTLSLVELFLADVEGLSVLRSFRLLRVFKLAKSWPTLNMLIKIIGNSVGALGNLTL
For B1, the “mean particle diameter / size distribution maximum” value in data set [2] was “roughly 80 nm”.
